Test results: US9884848B2, “Phenyl triazole derivative and its use for modulating the GABAA receptor complex” (SANIONA A/S, priority 2012, dated 2018)

Target: T1, human GABAA α5β3*γ2s receptors (Homo sapiens, UniProt P18507+P31644)
T1 construct: expressed in transfected cells
Test: In vitro inhibition of 3H-flumazenil binding, HEK cells expressing the human GABAA α5β3*γ2S receptor
Protocol: When the cultures reach confluency, the DMEM is removed and the cells are washed (10 ml for T175 flasks; 50 ml for roller bottles) once in Dulbecco's Phosphate Buffered Saline (DPBS). Following addition of DPBS to the cultures (10 ml for T175 flasks; 100 ml for roller bottles) for approximately 5 min cells are easily detached from the surface by shaking or tapping the flask gently. The cell suspension is transferred to Falcon tubes and centrifuged at 23,500×g for 10 min at 2° C. The pellet is washed once in 15 ml Tris-citrate buffer (50 mM, pH 7.1) using an Ultra-Turrax homogenizer and centrifuged at 2° C. for 10 min at 27,000×g. The washed pellet is re-suspended in 15 ml Tris-citrate buffer and frozen at −80° C. until the day of the binding experiment.
On the day of the experiment the cell membrane preparation is thawed and centrifuged at 2° C. for 10 min at 27,000×g.
Non-specific binding is determined using clonazepam (1 μM, final concentration). […]
The amount of radioactivity on the filters is determined by conventional liquid scintillation counting using a […]
where B is the binding in percentage of total specific binding; C is the concentration of test compound; and n is the Hill coefficient. […] The IC50 value is calculated from the concentration response curves by the non-linear regression method using the curve-fitting program GraphPad Prism.

T1 sequence (P31644 32-462): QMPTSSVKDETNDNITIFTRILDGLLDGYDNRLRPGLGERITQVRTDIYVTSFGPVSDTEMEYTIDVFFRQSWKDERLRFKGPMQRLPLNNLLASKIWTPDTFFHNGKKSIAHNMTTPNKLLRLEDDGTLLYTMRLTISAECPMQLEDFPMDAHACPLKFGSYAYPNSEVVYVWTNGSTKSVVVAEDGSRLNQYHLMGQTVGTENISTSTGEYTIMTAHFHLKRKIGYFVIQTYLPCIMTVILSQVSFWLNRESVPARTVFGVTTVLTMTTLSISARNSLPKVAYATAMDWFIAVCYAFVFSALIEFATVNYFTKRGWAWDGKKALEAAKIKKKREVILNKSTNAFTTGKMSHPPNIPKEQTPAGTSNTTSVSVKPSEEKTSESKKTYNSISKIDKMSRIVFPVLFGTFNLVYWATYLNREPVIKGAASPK
T1 sequence (P18507 40-467 isoform P18507-1 limits assumed): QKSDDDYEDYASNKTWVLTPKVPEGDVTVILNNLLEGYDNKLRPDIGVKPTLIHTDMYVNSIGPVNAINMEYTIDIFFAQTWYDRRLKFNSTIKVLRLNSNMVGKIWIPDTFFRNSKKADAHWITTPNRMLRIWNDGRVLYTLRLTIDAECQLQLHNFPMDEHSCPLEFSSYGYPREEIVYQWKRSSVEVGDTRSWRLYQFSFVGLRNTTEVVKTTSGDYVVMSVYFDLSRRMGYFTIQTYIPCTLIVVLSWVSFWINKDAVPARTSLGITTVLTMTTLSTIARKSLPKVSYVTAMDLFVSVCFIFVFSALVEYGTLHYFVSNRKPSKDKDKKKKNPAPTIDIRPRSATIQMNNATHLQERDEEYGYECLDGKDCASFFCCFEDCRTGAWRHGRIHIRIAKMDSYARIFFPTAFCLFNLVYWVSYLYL

`NC(=O)c1ccc(OCc2c(C(F)F)nnn2-c2ccc(F)cc2)nn1` [Compound 1, 6-[[5-(difluoromethyl)-3-(4-fluorophenyl)triazol-4-yl]methoxy]pyridazine-3-carboxamide] gave a Ki of 0.087 µM.
